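Assay format: 96-well plates, 48-hour exposure. At the GI50, growth is halved.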 Activity calls are given as the source filed them. No stated cut-off is given here; in the data, active = GI50 up to about 1.1 µM and inactive = higher.
How the values were obtained:
Assay in all cases: inhibition of tumour cell growth, NCI panel, 48 h
[1] = tested on: HOP-62
[2] = tested on: EKVX
[3] = tested on: DMS-273
[4] = tested on: SF-539
[5] = tested on: HCT-15
[6] = tested on: CAKI-1
[7] = tested on: A498
[8] = tested on: K562
[9] = tested on: XF498
[10] = tested on: SNB-75
[11] = tested on: A549
[12] = tested on: OVCAR-3
[13] = tested on: M19-MEL
[14] = tested on: OVCAR-5
[15] = tested on: U-251
[16] = tested on: OVCAR-4
[17] = tested on: NCI-H23
[18] = tested on: SR
[19] = tested on: UACC-257
[20] = tested on: SK-MEL-5
[21] = tested on: TK-10
[22] = tested on: CCRF-CEM
[23] = tested on: UO-31
[24] = tested on: MOLT-4
[25] = tested on: LXFL 529
[26] = tested on: SW-620
[27] = tested on: NCI-H460
[28] = tested on: 786-0
[29] = tested on: HL-60
[30] = tested on: HOP-92
[31] = tested on: SK-MEL-28
[32] = tested on: NCI-H522
[33] = tested on: KM12
[34] = tested on: SK-MEL-2
[35] = tested on: SN12C
[36] = tested on: HCT-116
[37] = tested on: HT-29
[38] = tested on: LOX IMVI
[39] = tested on: IGROV-1
[40] = tested on: UACC-62
[41] = tested on: DMS-114
[42] = tested on: NCI-H226
[43] = tested on: DLD-1
[44] = tested on: SNB-19
[45] = tested on: KM-20L2
[46] = tested on: M14
[47] = tested on: SK-OV-3
[48] = tested on: RXF 393
[49] = tested on: OVCAR-8
[50] = tested on: COLO 205
[51] = tested on: Malme-3M
[52] = tested on: RPMI-8226
[53] = tested on: HCC 2998
[54] = tested on: SF-295
[55] = tested on: ACHN
[56] = tested on: SNB-78
[57] = tested on: HOP-18
[58] = tested on: SF-268

**Q.** Which results are given for `O=C(/C(=C/c1ccccc1)c1ccccc1)N1c2ccccc2CC1c1c[nH]c2ccccc12` (stereo not given)?
**A.** GI50 [1]: > 100 µM (inactive); GI50 [2]: 25.2 µM (inactive); GI50 [3]: 7.83 µM (inactive); GI50 [4]: > 100 µM (inactive); GI50 [5]: 7.76 µM; GI50 [6]: 36.1 µM (inactive); GI50 [7]: > 100 µM (inactive); GI50 [8]: 5.05 µM (inactive); GI50 [9]: 3.05 µM (inactive); GI50 [10]: > 100 µM (inactive); GI50 [11]: 11 µM (inactive); GI50 [12]: 3.05 µM (inactive); GI50 [13]: 38.6 µM (inactive); GI50 [14]: 38.6 µM (inactive); GI50 [15]: 9.53 µM (inactive); GI50 [16]: 37.8 µM (inactive); GI50 [17]: 15 µM (inactive); GI50 [18]: > 100 µM (inactive); GI50 [19]: 54.5 µM (inactive); GI50 [20]: 21.7 µM (inactive); GI50 [21]: 45.7 µM (inactive); GI50 [22]: 8.91 µM (inactive); GI50 [23]: 5.11 µM (inactive); GI50 [24]: 3.33 µM (inactive); GI50 [25]: 8.3 µM (inactive); GI50 [26]: 59.2 µM (inactive); GI50 [27]: 7.48 µM (inactive); GI50 [28]: > 100 µM (inactive); GI50 [29]: 3.19 µM (inactive); GI50 [30]: 81.1 µM (inactive); GI50 [31]: > 100 µM (inactive); GI50 [32]: 7.8 µM (inactive); GI50 [33]: 10.2 µM (inactive); GI50 [34]: 6.03 µM (inactive); GI50 [35]: 22.2 µM (inactive); GI50 [36]: 5.51 µM (inactive); GI50 [37]: 76.4 µM (inactive); GI50 [38]: 21.6 µM (inactive); GI50 [39]: > 100 µM (inactive); GI50 [40]: > 100 µM (inactive); GI50 [41]: 5.7 µM (inactive); GI50 [42]: 41.1 µM (inactive); GI50 [43]: 53.2 µM (inactive); GI50 [44]: 23.7 µM (inactive); GI50 [45]: 26.8 µM (inactive); GI50 [46]: 9.18 µM (inactive); GI50 [47]: > 100 µM (inactive); GI50 [48]: 6.07 µM (inactive); GI50 [49]: > 100 µM (inactive); GI50 [50]: 6.27 µM (inactive); GI50 [51]: 28.5 µM (inactive); GI50 [52]: 15.6 µM (inactive); GI50 [53]: > 100 µM (inactive); GI50 [54]: 7.62 µM (inactive); GI50 [55]: 16.9 µM (inactive); GI50 [56]: 9.2 µM (inactive)

**Q.** What does the source list for `CC1=C[P+](Cc2ccccc2)(c2ccccc2)CC1` (stereo not given)?
**A.** GI50 [1]: > 100 µM (inactive); GI50 [2]: 54.6 µM (inactive); GI50 [3]: 78 µM (inactive); GI50 [4]: > 100 µM (inactive); GI50 [7]: > 100 µM (inactive); GI50 [12]: 44.3 µM (inactive); GI50 [13]: 46.8 µM (inactive); GI50 [57]: > 100 µM (inactive); GI50 [19]: 41.9 µM (inactive); GI50 [20]: 21.5 µM (inactive); GI50 [22]: > 100 µM (inactive); GI50 [23]: > 100 µM (inactive); GI50 [25]: 45.4 µM (inactive); GI50 [26]: > 100 µM (inactive); GI50 [29]: 34 µM (inactive); GI50 [32]: 41.7 µM (inactive); GI50 [33]: > 100 µM (inactive); GI50 [34]: > 100 µM (inactive); GI50 [36]: > 100 µM (inactive); GI50 [37]: 66.4 µM (inactive); GI50 [38]: 90.4 µM (inactive); GI50 [39]: 81.1 µM (inactive); GI50 [40]: 63.7 µM (inactive); GI50 [41]: 46.9 µM (inactive); GI50 [42]: > 100 µM (inactive); GI50 [44]: > 100 µM (inactive); GI50 [45]: 75.2 µM (inactive); GI50 [50]: 31.6 µM (inactive); GI50 [52]: 25.7 µM (inactive)

**Q.** For `O=c1[nH]c(C2CCCCC2)nc2ccc(Cl)cc12`, which GI50 [2] is on record?
**A.** The GI50 was > 100 µM (inactive).

**Q.** And the GI50 [3]?
**A.** The GI50 was > 100 µM (inactive).

**Q.** What about the GI50 [4] of the same compound?
**A.** Its GI50 is > 100 µM (inactive).

**Q.** And the GI50 [5]?
**A.** The GI50 was over 100 µM.

**Q.** What about the GI50 [8] of the same compound?
**A.** The GI50 was > 100 µM (inactive).

**Q.** What about the GI50 [10] of the same compound?
**A.** Its GI50 is 38.3 µM (inactive).

**Q.** And the GI50 [11]?
**A.** The GI50 was > 100 µM (inactive).

**Q.** And the GI50 [12]?
**A.** The GI50 was > 100 µM (inactive).

**Q.** And the GI50 [13]?
**A.** Its GI50 is > 100 µM (inactive).

**Q.** What about the GI50 [14] of the same compound?
**A.** The GI50 was > 100 µM (inactive).

**Q.** What about the GI50 [15] of the same compound?
**A.** The GI50 was > 100 µM (inactive).

**Q.** And the GI50 [17]?
**A.** Its GI50 is > 100 µM (inactive).

**Q.** And the GI50 [18]?
**A.** Its GI50 is > 100 µM (inactive).

**Q.** What about the GI50 [19] of the same compound?
**A.** Its GI50 is > 100 µM (inactive).

**Q.** What about the GI50 [20] of the same compound?
**A.** The GI50 was > 100 µM (inactive).

**Q.** What about the GI50 [21] of the same compound?
**A.** The GI50 was > 100 µM (inactive).

**Q.** And the GI50 [23]?
**A.** The GI50 was 93.3 µM (inactive).

**Q.** What about the GI50 [24] of the same compound?
**A.** Its GI50 is > 100 µM (inactive).

**Q.** What about the GI50 [25] of the same compound?
**A.** Its GI50 is > 100 µM (inactive).

**Q.** And the GI50 [26]?
**A.** The GI50 was > 100 µM (inactive).

**Q.** And the GI50 [28]?
**A.** The GI50 was > 100 µM (inactive).

**Q.** And the GI50 [30]?
**A.** Its GI50 is > 100 µM (inactive).

**Q.** What about the GI50 [58] of the same compound?
**A.** Its GI50 is > 100 µM (inactive).

**Q.** What about the GI50 [31] of the same compound?
**A.** Its GI50 is > 100 µM (inactive).

**Q.** What about the GI50 [33] of the same compound?
**A.** Its GI50 is > 100 µM (inactive).

**Q.** What about the GI50 [34] of the same compound?
**A.** Its GI50 is > 100 µM (inactive).

**Q.** What about the GI50 [35] of the same compound?
**A.** Its GI50 is > 100 µM (inactive).

**Q.** And the GI50 [36]?
**A.** Its GI50 is > 100 µM (inactive).

**Q.** And the GI50 [37]?
**A.** Its GI50 is > 100 µM (inactive).

**Q.** What about the GI50 [39] of the same compound?
**A.** The GI50 was 41.3 µM (inactive).

**Q.** And the GI50 [40]?
**A.** The GI50 was > 100 µM (inactive).

**Q.** What about the GI50 [41] of the same compound?
**A.** Its GI50 is > 100 µM (inactive).

**Q.** What about the GI50 [42] of the same compound?
**A.** Its GI50 is > 100 µM (inactive).

**Q.** What about the GI50 [44] of the same compound?
**A.** Its GI50 is > 100 µM (inactive).

**Q.** And the GI50 [45]?
**A.** The GI50 was > 100 µM (inactive).

**Q.** And the GI50 [47]?
**A.** Its GI50 is > 100 µM (inactive).

**Q.** And the GI50 [48]?
**A.** The GI50 was > 100 µM (inactive).

**Q.** What about the GI50 [49] of the same compound?
**A.** The GI50 was > 100 µM (inactive).

**Q.** And the GI50 [50]?
**A.** Its GI50 is > 100 µM (inactive).

**Q.** And the GI50 [51]?
**A.** The GI50 was > 100 µM (inactive).

**Q.** What about the GI50 [52] of the same compound?
**A.** The GI50 was > 100 µM (inactive).

**Q.** And the GI50 [53]?
**A.** Its GI50 is > 100 µM (inactive).

**Q.** What about the GI50 [54] of the same compound?
**A.** The GI50 was > 100 µM (inactive).

**Q.** What about the GI50 [55] of the same compound?
**A.** Its GI50 is > 100 µM (inactive).

**Q.** And the GI50 [56]?
**A.** The GI50 was > 100 µM (inactive).
